From the CheMixHub ionic liquid set
± gives the uncertainty stated by the source.

Experiment: xn = mol fraction of the nth substance listed

CC[n+]1ccn(C)c1.O=S(=O)([N-]S(=O)(=O)C(F)(F)F)C(F)(F)F + O=S(=O)([N-]S(=O)(=O)C(F)(F)F)C(F)(F)F.[Li+]
101 kPa, x1 = 1
Conditions	electrical conductivity [S/m]	viscosity [mPa·s]
288.15 K	0.611 ± 0.061	–
298.15 K	0.883 ± 0.089	–
313.15 K	–	19.26 ± 0.79
333.15 K	2.18 ± 0.22	–
343.15 K	–	9.46 ± 0.39

CC[n+]1ccn(C)c1.O=S(=O)([N-]S(=O)(=O)C(F)(F)F)C(F)(F)F + O=S(=O)([O-])C(F)(F)F.[Li+]
101 kPa, x1 = 1
Conditions	electrical conductivity [S/m]
288.15 K	0.611 ± 0.061
298.15 K	0.883 ± 0.089
333.15 K	2.18 ± 0.22

C[N+](C)(C)Cc1ccccc1.[Cl-] + OCC(O)CO
Conditions	electrical conductivity, 298 K [S/m]	viscosity, 288.15 K [mPa·s]	viscosity, 308 K [mPa·s]
100 kPa, x1 = 0.25	–	1875 ± 230	–
101.13 kPa, x1 = 0.5	0.069 ± 0.014	–	80 ± 15

CCCCCCCCCCCC[P+](CCCC)(CCCC)CCCC.N#Cc1ccc[n-]1 + OCCN(CCO)CCO
100 kPa
Conditions	electrical conductivity [S/m]	viscosity [mPa·s]
293.15 K, x1 = 0.001	0.0001 ± 0.0001	–
293.15 K, x1 = 0.015	0.0027 ± 0.0003	–
293.15 K, x1 = 0.035	0.0034 ± 0.0003	1037 ± 160
293.15 K, x1 = 0.121	–	1056 ± 160
293.15 K, x1 = 0.538	0.0049 ± 0.0005	770 ± 120
293.15 K, x1 = 1	0.0082 ± 0.0008	567 ± 84
298.15 K, x1 = 0.035	–	670 ± 100
298.15 K, x1 = 0.325	–	623 ± 93
298.15 K, x1 = 0.755	–	477 ± 70
298.15 K, x1 = 1	–	389 ± 57
303.15 K, x1 = 0.017	–	436 ± 64
303.15 K, x1 = 0.054	–	439 ± 64
303.15 K, x1 = 0.325	–	421 ± 62
303.15 K, x1 = 0.755	–	336 ± 49
303.15 K, x1 = 1	–	297 ± 43
313.15 K, x1 = 0.096	–	217 ± 31
313.15 K, x1 = 0.325	–	209 ± 30

CC[n+]1ccn(C)c1.F[B-](F)(F)F + OCCO
Conditions	viscosity [mPa·s]
293.15 K, 100 kPa, x2 = 0.6954	14.9 ± 1.5
298.15 K, 100 kPa, x2 = 0.283	19.8 ± 2
298.15 K, 100 kPa, x2 = 0.4435	15.1 ± 1.5
303.15 K, 100 kPa, x2 = 0	34.5 ± 3.5
303.15 K, 101 kPa, x1 = 0.4011	9.88 ± 0.99
313.15 K, 100 kPa, x2 = 0.4435	9.71 ± 0.97
313.15 K, 101 kPa, x1 = 0.4011	7.3 ± 0.73
323.15 K, 100 kPa, x2 = 0.4435	7.57 ± 0.76
323.15 K, 100 kPa, x2 = 0.5876	6.34 ± 0.64
333.15 K, 100 kPa, x2 = 0.4435	6.08 ± 0.61
333.15 K, 100 kPa, x2 = 0.5237	5.44 ± 0.55
333.15 K, 100 kPa, x2 = 0.8751	4.42 ± 0.44
333.15 K, 101 kPa, x1 = 0.0993	4.28 ± 0.43
333.15 K, 101 kPa, x1 = 0.2001	4.08 ± 0.41
343.15 K, 100 kPa, x2 = 0.4435	5.01 ± 0.5
343.15 K, 100 kPa, x2 = 0.5876	4.13 ± 0.42
353.15 K, 100 kPa, x2 = 0	9.58 ± 0.97
353.15 K, 100 kPa, x2 = 0.5876	3.46 ± 0.35
353.15 K, 100 kPa, x2 = 0.6954	3.07 ± 0.31
353.15 K, 100 kPa, x2 = 0.7916	2.9 ± 0.29

C[N+](CCO)(CCO)CCOCCO.[Cl-] + OCCO
101 kPa, x1 = 0.3322
Conditions	viscosity [mPa·s]
283.15 K	474 ± 16
288.15 K	335 ± 11
293.15 K	243.1 ± 6.9
298.15 K	179.2 ± 4.7
303.15 K	136.1 ± 3.3
308.15 K	104.7 ± 2.4
313.15 K	81.8 ± 1.8
318.15 K	65.1 ± 1.4
323.15 K	52.4 ± 1.1
328.15 K	42.78 ± 0.89
333.15 K	35.43 ± 0.74
338.15 K	29.52 ± 0.62
343.15 K	24.91 ± 0.52
348.15 K	21.24 ± 0.44
353.15 K	18.37 ± 0.38

CC[n+]1ccn(C)c1.O=S(=O)([N-]S(=O)(=O)C(F)(F)F)C(F)(F)F + OCCOCCOCCOCCO
Conditions	viscosity [mPa·s]
298.15 K, 101 kPa, x2 = 0	32.3 ± 0.7

CC[n+]1ccn(C)c1.O=S(=O)([N-]S(=O)(=O)C(F)(F)F)C(F)(F)F + [I-].[Li+]
101 kPa, x1 = 1
Conditions	electrical conductivity [S/m]
288.15 K	0.611 ± 0.061
298.15 K	0.883 ± 0.089
333.15 K	2.18 ± 0.22

CCCC[n+]1ccn(C)c1.[I-] + [I-].[Li+] + O
viscosity [mPa·s], 100 kPa
Conditions	x1 = 0.05, x2 = 0.05	x1 = 0.4, x2 = 0.05
198.25 K	–	1.3e+08
198.65 K	15000	–
203.85 K	6900	1.32e+07 ± 3.2e+06
208.75 K	3700	–
209.15 K	–	2900000
213.95 K	1900	490000
218.85 K	1600	180000
224.05 K	1200	68000
228.55 K	–	29000
228.95 K	810	–
233.05 K	470	–
234.15 K	–	15000
236.45 K	320	–
238.25 K	–	8000
241.25 K	220	–
243.85 K	–	3700
246.15 K	150	–
248.75 K	11	–
249.15 K	–	2500
253.95 K	9.7	1600
259.25 K	–	1000
259.65 K	7.7	–
263.4 K	6.1	–
264.1 K	–	600
268.6 K	–	440
268.9 K	5.2	–
273 K	–	280
274 K	4.5	–
278.6 K	4.5	–
279.1 K	–	180
283.55 K	3.9	120
288.45 K	3.6	–
289.15 K	–	82
293.65 K	3.1	65
298.55 K	2.6	41

CC[n+]1ccn(C)c1.O=S(=O)([N-]S(=O)(=O)C(F)(F)F)C(F)(F)F + c1ccccc1
100 kPa
Conditions	viscosity [mPa·s]
298.15 K, x2 = 0.135	25.2 ± 1.3
298.15 K, x2 = 0.339	15.64 ± 0.84
318.15 K, x2 = 0.471	6.8 ± 0.4
328.15 K, x2 = 0	13.68 ± 0.74
328.15 K, x2 = 0.339	7.26 ± 0.42
